From patent US20210228552A1, “METHOD FOR ADJUSTING RAS UBIQUITINATION” (Xiamen University, priority 2018, published 2021)
Entries after “also recorded” stand apart in the source; their conditions may differ.

Columns and labels:
MCF-7 cells = experiment: Colony forming ability on soft agar, MCF-7 cells; assay type: cell-based, Human; conditions: 10-30 days, FIG. 4(a)
Procedure: (§1) i. 1% agar was prepared and sterilized under high pressure. 1% Agar was heated and melted in a boiling water bath before use, then cooled in a 40° C. water bath (standing for at least 30 minutes and cooling the agar to 40° C.); and 2×DMEM/FBS was placed in a warm bath at the same time;
(§2) ii. 0.5% bottom agar was prepared by mixing 1% agar and 2×DMEM/FBS in a sterile tube at a volume ratio of 1:1. The mixture was quickly added to a 6-well plate, 1.5 mL per well, gently shake it well, and it was stood at room temperature to be solidified (after solidification, it can be stored at 4° C. for 1 week. Leave at room temperature for at least 30 minutes before use to restore it to room temperature).
(§3) i. A final concentration of 0.3% agar+1×DMEM/FBS mixture was prepared in sterile tubes by using 1% agar at a temperature of 40° C., 2×DMEM/FBS and sterile water. The prepared mixed solution was put into a 40° C. water bath kettle for later use;
(§4) ii. The cells were digested by trypsin and counted, and the cell density was adjusted according to the needs of the experiment; […]

SW620 cells = experiment: Colony forming ability on soft agar, SW620 cells; assay type: cell-based, Human; conditions: 10-30 days, FIG. 4(b)
Procedure: as §1, §2, §3, §4

K-Ras-G12V [1] = target: T1, K-Ras-G12V (Homo sapiens, UniProt P01116, G12V); experiment: Exogenous Flag-K-Ras-G12V protein level in transfected HEK293T cells (Western blotting); assay type: cell-based; conditions: HEK293T cells transfected with Flag-K-Ras-G12V, 2.5-20 μM, 24 h, FIG. 3(b)
Procedure: Compounds that can Decrease the Level of Exogenous K-Ras-G12V were Screened in HEK293T Cells
1) Cell plating: HEK293T cells in logarithmic growth phase were inoculated into 12-well plates and cultured in 37° C. and 5% CO2 incubator. The best inoculation amount was at a cell density of 70%-90% when transfected the next day. […]
(§5) 3) Detection of K-Ras protein level: 24 hours after administration, liquid in the well was discarded, the cells were routinely collected, the cells were rinsed twice with 1×PBS, and the cell lysate was added to extract the total cell protein. The protein concentration was determined by BCA method. […]
(§6) 4) Calculation of single point K-Ras protein degradation rate: quantitative and calibration analysis on Flag-K-Ras and β-actin were performed by Image-Lab software, and then the intracellular Flag-K-Ras degradation rate was calculated according to the following formula: single point Flag-K-Ras protein degradation rate (%)=(control group-administration group)/control group×100%. […]

HT-29 cells = experiment: Colony forming ability on soft agar, HT-29 cells; assay type: cell-based, Human; conditions: HT-29 cells (Raf kinase mutation), 10-30 days, FIG. 4(c)
Procedure: as §1, §2, §3, §4

K-Ras-G12V [2] = target: T1, K-Ras-G12V; experiment: Endogenous K-Ras-G12V protein level in SW620 cells (Western blotting); assay type: cell-based; parameters: endogenous in cells; host or cells: SW620; conditions: 2.5-20 μM, 24 h, FIG. 3(a)
Procedure: Compounds that can Decrease the Level of Endogenous K-Ras-G12V were Screened in SW620 Cells
1) Cell plating: SW620 cells in logarithmic growth phase were inoculated into 24-well plates with 2×10^4/well and cultured in 37° C. and 5% CO2 incubator.
2) Cell administration: after 24 hours of culture, various drug stock solutions were diluted […]; the stock solution from the 24-well plate was discarded, then the prepared drug solution was added, with taking the DMSO group as a blank control; after the drug was added, it was transferred to the CO2 incubator at 37° C. to continue the culture.
as §5
as §6, with “K-Ras” for “Flag-K-Ras”

O=C(NCc1ccccc1C(F)(F)F)c1c[nH]c(-c2n[nH]c3ncccc23)c1 [ZT-10-158-01]
colony forming ability on agar (MCF-7 cells): can selectively inhibit the colony formation; also recorded: effective in inhibiting colony forming ability
colony forming ability on agar (SW620 cells): can selectively inhibit the colony formation; also recorded: effective in inhibiting colony forming ability
level of exogenous K-Ras-G12V protein (K-Ras-G12V [1]): effective in decreasing K-Ras protein levels in cells, and in a positive concentration-dependent correlation; also recorded: effective in decreasing the level of exogenous K-Ras-G12V protein in HEK293T cells with a positive concentration-dependent inhibitory effect
colony forming ability on agar (HT-29 cells): no significant inhibitory effect; also recorded: did not inhibit the colony forming ability
level of endogenous K-Ras-G12V protein (K-Ras-G12V [2]): effective in decreasing K-Ras protein levels in cells, and in a positive concentration-dependent correlation; also recorded: effective in decreasing the level of endogenous K-Ras-G12V protein in SW620 cells with a positive concentration-dependent inhibitory effect
